Test results as given in ChEMBL document CHEMBL1201862, “PubChem BioAssay data set” (2004).
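In this assay, cells in 96-well plates receive the compound at five concentrations for 48 hours. Endpoints are linearly interpolated between the surrounding concentrations. Here, GI50 denotes the concentration required for 50% inhibition of growth.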 Active and inactive are the calls of the source. Cut-off read from the data, not from the text of the source: active = GI50 up to about 1.1 µM and inactive = higher.

Assays:
Assay in all cases: growth of human tumour cells (NCI), 48 h
HOP-18 = tested on: HOP-18
RXF 631 = tested on: RXF 631
M19-MEL = tested on: M19-MEL
KM-20L2 = tested on: KM-20L2
DMS-273 = tested on: DMS-273
XF498 = tested on: XF498
SNB-78 = tested on: SNB-78
LXFL 529 = tested on: LXFL 529
DMS-114 = tested on: DMS-114

Compound | GI50 (HOP-18) | GI50 (RXF 631) | GI50 (M19-MEL) | GI50 (KM-20L2) | GI50 (DMS-273) | GI50 (XF498) | GI50 (SNB-78) | GI50 (LXFL 529) | GI50 (DMS-114)
NNC(=O)C(=O)N/N=C1/CCCC1C(=O)CCC(=O)Nc1ccc(Cl)cc1 (stereo not given) | > 100 µM (inactive) | > 100 µM (inactive) | 89.3 µM (inactive) | 6.04 µM (inactive) | 37.3 µM (inactive) | > 100 µM (inactive) | > 100 µM (inactive) | 20.6 µM (inactive) | 63 µM (inactive)
O=C(CN1CCN(c2ccccc2)CC1)N1CCc2c([nH]c3ccccc23)C1c1cccnc1 (stereo not given) | > 100 µM (inactive) | 33.3 µM (inactive) | > 95.9 µM (inactive) | > 100 µM (inactive) | 49 µM (inactive) | 24.1 µM (inactive) | 13.5 µM (inactive) | 71.9 µM (inactive) | 26.9 µM (inactive)
COc1ccc(NC(=O)C2C(=O)N(c3ccc(OC)cc3)C(=O)/C2=N/O)cc1 (stereo not given) | 17.9 µM (inactive) |  | 26.5 µM (inactive) | 48 µM (inactive) | 26.8 µM (inactive) | 14 µM (inactive) | 46.8 µM (inactive) | 25.2 µM (inactive) | 35.6 µM (inactive)
N#Cc1cc([N+](=O)[O-])ccc1NC(=O)C(=O)Nn1c(S)nc2ccccc2c1=O | > 100 µM (inactive) | > 100 µM (inactive) | > 100 µM (inactive) | > 100 µM (inactive) |  | > 100 µM (inactive) | > 100 µM (inactive) | > 100 µM (inactive) | 
CC(=O)N1CCC2(C=Nc3ccccc32)CC1 | > 100 µM (inactive) |  | > 100 µM (inactive) | > 100 µM (inactive) | > 100 µM (inactive) | > 100 µM (inactive) | > 100 µM (inactive) | > 100 µM (inactive) | > 100 µM (inactive)
Oc1cc(-c2cccc(Cl)c2)nc2cc3c(cc12)OCO3 | 1.5 µM (inactive) |  | 0.327 µM (active) |  | 0.327 µM (active) | 1.4 µM (inactive) |  | 0.19 µM (active) | 0.296 µM (active)
[O-][S+](c1ccc(O)cc1)c1ccc(O)cc1 |  | > 100 µM (inactive) | > 100 µM (inactive) | > 100 µM (inactive) | > 100 µM (inactive) | > 100 µM (inactive) |  |  | > 100 µM (inactive)
CC(=O)/C(=N\O)C(=O)NCc1ccccc1 | > 100 µM (inactive) | > 100 µM (inactive) |  | > 100 µM (inactive) | > 100 µM (inactive) |  | > 100 µM (inactive) | > 100 µM (inactive) | 29.4 µM (inactive)
COc1ccc(/C=C\c2cc(OC)c(OC)c(OC)c2)cc1OC | 0.411 µM (active) | 0.195 µM (active) |  | 0.0771 µM (active) | 0.0207 µM (active) | 0.122 µM (active) | 0.0171 µM (active) | 0.186 µM (active) | 0.105 µM (active)
O=C(Cc1ccccc1)NN1C(=O)C(Cl)C1c1cccc(O)c1 (stereo not given) | 20.6 µM (inactive) |  | 18 µM (inactive) | 15.1 µM (inactive) | 16.1 µM (inactive) | 20.1 µM (inactive) | 15.8 µM (inactive) | 10.6 µM (inactive) | 13.8 µM (inactive)
Cc1ccc(NC(=O)/C(Cl)=C(/Cl)C(=O)O)cc1 | 19.1 µM (inactive) | 24.4 µM (inactive) | 16 µM (inactive) | 22.4 µM (inactive) | 22.1 µM (inactive) |  | 30.1 µM (inactive) | 11.9 µM (inactive) | 20 µM (inactive)
Cn1c(=O)ccc2cc(C(=O)c3ccccc3)ccc21 | 36.6 µM (inactive) | 64.3 µM (inactive) | 55.3 µM (inactive) | 73.5 µM (inactive) | 35.3 µM (inactive) | 16.7 µM (inactive) |  | 45.8 µM (inactive) | 22.1 µM (inactive)
CCN(CC)CC(C)(C)C(=O)/C=C/c1ccc(/C=C/C(=O)C(C)(C)CN(CC)CC)cc1 |  |  | 0.687 µM (active) | 0.617 µM (active) | 0.234 µM (active) | 0.317 µM (active) | 1.41 µM (inactive) | 0.188 µM (active) | 0.266 µM (active)
CCN(CC)C(=O)N1CCN(C=S)CC1 | > 100 µM (inactive) |  | > 100 µM (inactive) | > 100 µM (inactive) | > 100 µM (inactive) |  | > 100 µM (inactive) | > 100 µM (inactive) | > 100 µM (inactive)
CN(C)CCNC(=O)c1cccc2c1nc(-c1ccc(F)cc1)c1ccccc12 | 14.4 µM (inactive) |  | 5.52 µM (inactive) |  | 2.15 µM (inactive) |  | 10.7 µM (inactive) |  | 4.42 µM (inactive)
CCOc1ccccc1Nc1nc(C)c(C(=O)CC(=O)C(=O)Nc2ccccc2)s1 | > 100 µM (inactive) |  | 36.5 µM (inactive) | 66.4 µM (inactive) | 54.2 µM (inactive) | 31.6 µM (inactive) | > 100 µM (inactive) | 43.3 µM (inactive) | 35.5 µM (inactive)
O=[N+]([O-])c1ccc(-c2ccc(C3=Nn4c(CNc5ccccc5Cl)nnc4SC3)o2)cc1 |  |  | > 100 µM (inactive) | > 100 µM (inactive) | > 100 µM (inactive) | > 100 µM (inactive) | > 100 µM (inactive) | 82.4 µM (inactive) | 
CC(=O)O[C@@]12CO[C@@H]1C[C@H](O)[C@@]1(C)C(=O)[C@H](O)C3=C(C)[C@@H](OC(=O)[C@H](O)[C@@H](NC(=O)OC(C)(C)C)c4ccccc4)C[C@@](O)([C@@H](OC(=O)c4ccccc4)[C@H]21)C3(C)C [DOCETAXEL] | 29.9 µM (inactive) | < 0.01 µM (active) | < 0.01 µM (active) | < 0.01 µM (active) | < 0.01 µM (active) |  |  | < 0.01 µM (active) | < 0.01 µM (active)
CCOC(=O)C(C)(C)Oc1ccc2c(-c3ccc(Cl)cc3)c(-c3ccc(Cl)cc3)c(=O)oc2c1 |  | > 100 µM (inactive) | > 100 µM (inactive) | > 100 µM (inactive) | > 100 µM (inactive) |  |  | > 100 µM (inactive) | > 100 µM (inactive)
Nc1nc(O)c2c(ncn2CC(O)CO)n1 (stereo not given) | > 100 µM (inactive) | > 100 µM (inactive) | > 100 µM (inactive) | > 100 µM (inactive) | > 100 µM (inactive) |  | > 100 µM (inactive) | > 100 µM (inactive) | > 100 µM (inactive)
OC1[C@H]([C@H]2CCCC[C@@H]2O)CCC[C@@H]1[C@@H]1CCCC[C@H]1O (stereo not given in full) | > 100 µM (inactive) |  | > 100 µM (inactive) | > 100 µM (inactive) | > 100 µM (inactive) | > 100 µM (inactive) | 48.2 µM (inactive) | > 100 µM (inactive) | > 100 µM (inactive)
CCOC(=O)C(C)(C)Oc1ccc2c(-c3ccccc3)cc(=O)oc2c1 |  |  | 32.2 µM (inactive) | 30.6 µM (inactive) | 29 µM (inactive) | 16.4 µM (inactive) |  | 25.3 µM (inactive) | 21.9 µM (inactive)
